From patent publication US8871934B2, “Fluorene compound and pharmaceutical use thereof” (Japan Tobacco Inc., priority 2008, dated 2014)
Read-outs that look alike come from different tables or passages of the source.

Molecular target: human PDHK2 (hPDHK2) (Homo sapiens (Human), UniProt Q15119)
Test: Inhibitory action of PDHK activity in vitro (kinase reaction, residual PDH activity measured)
Assay type: biochemical
[1] = PDHK inhibitory activity, class symbol of IC50
[2] = read-out: PDHK inhibitory activity IC50
[3] = PDHK inhibitory activity (class symbol)

IC50 (PDHK inhibitory activity IC50 (μmol/L))	Structure (SMILES)	IC50 [1]	IC50 [2]	IC50 [3]
	NC(=O)C1CCN(c2ccc3c(c2)C(O)(C(F)(F)F)c2ccccc2-3)CC1 (centres unmarked) [compound 230]	> 1000 nM	3710 nM	
	COC1CN(C(=O)c2ccc3c(c2)C(O)(C(F)(F)F)c2ccccc2-3)C1 (centres unmarked) [compound 86]	100 to 1000 nM	378 nM	
	O=C(COc1ccc2c(c1)C(O)(C(F)(F)F)c1ccccc1-2)N1CCCCC1 (centres unmarked) [compound 361]	100 to 1000 nM	436 nM	
	NC(=O)c1ccc(-c2ccc3c(c2)C(O)(C(F)(F)F)c2ccccc2-3)cc1 (centres unmarked) [compound 199]	100 to 1000 nM	182 nM	
	Cn1cc(-c2cc(OCC(=O)O)cc3c2-c2ccccc2C3(O)C(F)(F)F)cn1 (centres unmarked) [compound 358]	< 100 nM	34 nM	
	Cn1cc(-c2cc(N3CCC(C(=O)O)CC3)cc3c2-c2ccccc2C3(O)C(F)(F)F)cn1 (centres unmarked) [compound 558]	< 100 nM	81 nM	
	CNC(=O)CCn1cc(-c2cccc3c2-c2ccccc2C3(O)C(F)(F)F)cn1 (centres unmarked) [compound 487]	< 100 nM	64 nM	
	CN(CCOc1cc(Cl)c2c(c1)C(O)(C(F)(F)F)c1ccccc1-2)C(=O)CO (centres unmarked) [compound 409]	< 100 nM	67 nM	
	CCCOc1ccc2c(c1)C(O)(C(F)(F)F)c1ccccc1-2 (centres unmarked) [compound 265]	> 1000 nM	1260 nM	
	O=C(O)CCCn1cc(-c2cc(CO)cc3c2-c2ccccc2C3(O)C(F)(F)F)cn1 (centres unmarked) [compound 623]		133 nM	100 to 1000 nM
	OC1(C(F)(F)F)c2ccccc2-c2ccc(Br)cc21 (centres unmarked) [compound 7]	> 1000 nM	1440 nM	
	Cn1cc(-c2cc(OCC(=O)N3CC(O)C3)cc3c2-c2ccccc2C3(O)C(F)(F)F)cn1 (single isomer, unassigned) [compound 475]	< 100 nM	20 nM	
	CC(C)(C)CCc1cc(-c2cnn(C(CO)CO)c2)c2c(c1)C(O)(C(F)(F)F)c1ccccc1-2 (centres unmarked) [compound 666]		27 nM	< 100 nM
	Cn1cc(-c2cc(N3CCOCC3)cc3c2-c2ccccc2C3(O)C(F)(F)F)cn1 (centres unmarked) [compound 569]	< 100 nM	44 nM	
	Cc1cc(C)c2c(c1)C(O)(C(F)(F)F)c1ccccc1-2 (centres unmarked) [compound 18]	100 to 1000 nM	457 nM	
	CC(C)(C)n1cc(-c2cccc3c2-c2ccccc2C3(O)C(F)(F)F)cn1 (centres unmarked) [compound 523]	< 100 nM	48 nM	
	CN(CCOc1cc(-c2cnn(C)c2)c2c(c1)C(O)(C(F)(F)F)c1ccccc1-2)C(=O)CO (centres unmarked) [compound 425]	< 100 nM	21 nM	

IC50 (PDHK inhibitory activity IC50 (μmol/L))	Structure (SMILES)	IC50 [1]	IC50 [2]	IC50 [3]
	OC1(C(F)(F)F)c2ccccc2-c2ccc(-c3ccc(F)cc3)cc21 (centres unmarked) [compound 171]	100 to 1000 nM	951 nM	
	OC1(C(F)(F)F)c2ccccc2-c2ccc(Cl)cc21 (centres unmarked) [compound 5]	> 1000 nM	1170 nM	
	CN1C(=O)CC[C@H]1COc1ccc2c(c1)C(O)(C(F)(F)F)c1ccccc1-2 (some centres unmarked) [compound 448]	100 to 1000 nM	381 nM	
	CC(=O)c1cc(C(=O)N2CCC2)cc2c1-c1ccccc1C2(O)C(F)(F)F (centres unmarked) [compound 122]	< 100 nM	49 nM	
17 nM	OCC1(n2cc(-c3cc(F)cc4c3-c3ccccc3[C@]4(O)C(F)(F)F)cn2)CCCCC1 (stereo in doubt) [compound 545]	< 100 nM		
	CCc1cc(-c2cnn(C(CO)CO)c2)c2c(c1)C(O)(C(F)(F)F)c1ccccc1-2 (centres unmarked) [compound 653]		37 nM	< 100 nM
	Cc1ccc2c(c1)C(O)(C(F)(F)F)c1cccnc1-2 (centres unmarked) [compound 16]	> 1000 nM	19300 nM	
	Cc1cc(-c2cnn(CCCc3nn[nH]n3)c2)c2c(c1)C(O)(C(F)(F)F)c1ccccc1-2 (single isomer, unassigned) [compound 691]		30 nM	< 100 nM
	CC(=O)N(C)CCOc1cc(-c2cncnc2)c2c(c1)C(O)(C(F)(F)F)c1ccccc1-2 (centres unmarked) [compound 422]	< 100 nM	23 nM	
	NC(=O)C1CN(C(=O)c2ccc3c(c2)C(O)(C(F)(F)F)c2ccccc2-3)C1 (centres unmarked) [compound 123]	100 to 1000 nM	877 nM	
	CCOC(=O)N1CCN(c2ccc3c(c2)C(O)(C(F)(F)F)c2ccccc2-3)CC1 (centres unmarked) [compound 211]	> 1000 nM	1010 nM	
	CC(=O)NCCn1cc(-c2cccc3c2-c2ccccc2C3(O)C(F)(F)F)cn1 (centres unmarked) [compound 527]	< 100 nM	79 nM	
	N#Cc1cccc2c1-c1ccccc1C2(O)C(F)(F)F (centres unmarked) [compound 49]	> 1000 nM	1790 nM	
	CCOC(=O)c1ccc(-c2cc(Cl)c3c(c2)C(O)(C(F)(F)F)c2ccccc2-3)cc1 (centres unmarked) [compound 233]	100 to 1000 nM	142 nM	
	COC(=O)c1ccc(-c2ccc3c(c2)C(O)(C(F)(F)F)c2ccccc2-3)cc1Cl (centres unmarked) [compound 236]	100 to 1000 nM	355 nM	
	OC1(C(F)(F)F)c2ccccc2-c2c(Cl)cc(-c3ccncc3)cc21 (centres unmarked) [compound 185]	< 100 nM	53 nM	
	OC1(C(F)(F)F)c2ccccc2-c2cccc(Cl)c21 (centres unmarked) [compound 8]	> 1000 nM	45600 nM	
